Tested on: SEM cells
Experiment: cell viability relative to DMSO control; higher = less cytotoxic
Conditions: 48 h
Method in brief: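 Library compounds in DMSO were pin-dosed into 1536-well plates (5 μl) holding NOMO1 or SEM (500 cells/well) or P12-Ichikawa (1000 cells/well) leukemia cells, across an 11-point threefold series of 47 μM to 0.79 nM. Each cell line had been adapted for at least four passages in each medium. CellTiter-Glo One luminescence was read after 48 h at 37°C. Viability is the per-plate percentage relative to DMSO wells, with cell-free wells as background.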

[1] = HPLM + 10% dialyzed FBS, 0.000781 µM
[2] = HPLM + 10% dialyzed FBS, 0.00234 µM
[3] = HPLM + 10% dialyzed FBS, 0.00702 µM
[4] = HPLM + 10% dialyzed FBS, 0.0211 µM
[5] = HPLM + 10% dialyzed FBS, 0.0632 µM
[6] = HPLM + 10% dialyzed FBS, 0.19 µM
[7] = HPLM + 10% dialyzed FBS, 0.569 µM
[8] = HPLM + 10% dialyzed FBS, 1.71 µM
[9] = HPLM + 10% dialyzed FBS, 5.12 µM
[10] = HPLM + 10% dialyzed FBS, 15.4 µM
[11] = HPLM + 10% dialyzed FBS, 46.1 µM
[12] = RPMI 5 mM glucose + 10% FBS, 0.000781 µM
[13] = RPMI 5 mM glucose + 10% FBS, 0.00234 µM
[14] = RPMI 5 mM glucose + 10% FBS, 0.00702 µM
[15] = RPMI 5 mM glucose + 10% FBS, 0.0211 µM
[16] = RPMI 5 mM glucose + 10% FBS, 0.0632 µM
[17] = RPMI 5 mM glucose + 10% FBS, 0.19 µM
[18] = RPMI 5 mM glucose + 10% FBS, 0.569 µM
[19] = RPMI 5 mM glucose + 10% FBS, 1.71 µM
[20] = RPMI 5 mM glucose + 10% FBS, 5.12 µM
[21] = RPMI 5 mM glucose + 10% FBS, 15.4 µM
[22] = RPMI 5 mM glucose + 10% FBS, 46.1 µM
[23] = RPMI 5 mM glucose + 10% dialyzed FBS, 0.000781 µM
[24] = RPMI 5 mM glucose + 10% dialyzed FBS, 0.00234 µM
[25] = RPMI 5 mM glucose + 10% dialyzed FBS, 0.00702 µM
[26] = RPMI 5 mM glucose + 10% dialyzed FBS, 0.0211 µM
[27] = RPMI 5 mM glucose + 10% dialyzed FBS, 0.0632 µM
[28] = RPMI 5 mM glucose + 10% dialyzed FBS, 0.19 µM
[29] = RPMI 5 mM glucose + 10% dialyzed FBS, 0.569 µM
[30] = RPMI 5 mM glucose + 10% dialyzed FBS, 1.71 µM
[31] = RPMI 5 mM glucose + 10% dialyzed FBS, 5.12 µM
[32] = RPMI 5 mM glucose + 10% dialyzed FBS, 15.4 µM
[33] = RPMI 5 mM glucose + 10% dialyzed FBS, 46.1 µM

Compound	cell viability [1]	cell viability [2]	cell viability [3]	cell viability [4]	cell viability [5]	cell viability [6]	cell viability [7]	cell viability [8]	cell viability [9]	cell viability [10]	cell viability [11]	cell viability [12]	cell viability [13]	cell viability [14]	cell viability [15]	cell viability [16]	cell viability [17]	cell viability [18]	cell viability [19]	cell viability [20]	cell viability [21]	cell viability [22]	cell viability [23]	cell viability [24]	cell viability [25]	cell viability [26]	cell viability [27]	cell viability [28]	cell viability [29]	cell viability [30]	cell viability [31]	cell viability [32]	cell viability [33]
O=C1c2ccccc2-c2n[nH]c3cccc1c23	82.9%	101%	121%	97.9%	99%	104%	5.3%	102%	112%	76.8%	37.4%	82%	107%	97.3%	103%	106%	107%	6.25%	98.2%	90.5%	63.6%	21.2%	86.6%	93.9%	99.1%	105%	91%	116%	5.93%	92.9%	103%	67.4%	26.7%
COC(=O)CCC1=C(C)C2=CC3=NC(=CC4=C(C)C(=C([NH]4)C=C\5N=C(C=C1[NH]2)\C(=C5C)CCC(O)=O)C=C)\C6=C\C=C(/[C@@H](C(=O)OC)[C@@]36C)C(=O)OC	88.5%	83.3%	89.7%	85.4%	94.2%	94.4%	98%	95.7%	91.7%	82.7%	77.4%	89.4%	92%	91.8%	94.9%	95.2%	98.1%	87.7%	98.9%	95.4%	89.7%	75.4%	86.6%	90.7%	101%	108%	105%	122%	104%	108%	105%	91.3%	80.4%
c1ccc2c(CN3CCNCC3)cccc2c1	102%	102%	115%	108%	100%	126%	108%	107%	102%	98.8%	98.8%	85.5%	104%	98.6%	107%	97.4%	101%	97.1%	103%	92.7%	101%	105%	97.7%	106%	126%	124%	128%	122%	106%	131%	95.7%	103%	84%
CC1(C)[C@@H](O)CC[C@@]2(C)[C@H]1CC[C@]3(C)[C@@H]2C(=O)\C=C/4[C@@H]5C[C@](C)(CC[C@]5(C)CC[C@@]34C)C(O)=O	99.3%	98.8%	99.7%	104%	105%	93.9%	99%	110%	99.3%	90.7%	86.9%	98.4%	113%	108%	108%	101%	113%	97.3%	108%	99.6%	101%	86.1%	100%	92.7%	112%	109%	98.6%	108%	114%	103%	90.2%	107%	102%
CCn1c(C(=O)N(C2CC2)C2CC2)cc2c3c(ncn3C)c(Nc3cc(C)n(C)n3)nc21	75.8%	100%	113%	99.9%	107%	101%	99.9%	106%	94.3%	78.8%	55.3%	71.3%	114%	119%	121%	119%	123%	110%	106%	93%	91.3%	26.7%	75.7%	109%	117%	107%	104%	100%	102%	112%	82.8%	66.8%	34.1%
